Read-outs that look alike come from different tables or passages of the source.
What was measured:
[1] = tested on: STS; assay: Plate assay, % inhibition; assay type: biochemical
Experimental: (§1) The STS inhibition provided by the compounds was determined in accordance with the placental microsomes assay of Protocol 4 and a plate assay.

[2] = molecular target: T1, steroid sulphatase (STS) (Homo sapiens, UniProt P08842); assay: Inhibition of steroid sulphatase activity in placental microsomes, Protocol 4; assay type: biochemical; details: for inhibition at 0.01 µM: read-out: Placental Microsomes, % inhibition 10 nM; for inhibition at 1 µM: read-out: Placental Microsomes, % inhibition 1 μM
T1 sequence (P08842 22-583): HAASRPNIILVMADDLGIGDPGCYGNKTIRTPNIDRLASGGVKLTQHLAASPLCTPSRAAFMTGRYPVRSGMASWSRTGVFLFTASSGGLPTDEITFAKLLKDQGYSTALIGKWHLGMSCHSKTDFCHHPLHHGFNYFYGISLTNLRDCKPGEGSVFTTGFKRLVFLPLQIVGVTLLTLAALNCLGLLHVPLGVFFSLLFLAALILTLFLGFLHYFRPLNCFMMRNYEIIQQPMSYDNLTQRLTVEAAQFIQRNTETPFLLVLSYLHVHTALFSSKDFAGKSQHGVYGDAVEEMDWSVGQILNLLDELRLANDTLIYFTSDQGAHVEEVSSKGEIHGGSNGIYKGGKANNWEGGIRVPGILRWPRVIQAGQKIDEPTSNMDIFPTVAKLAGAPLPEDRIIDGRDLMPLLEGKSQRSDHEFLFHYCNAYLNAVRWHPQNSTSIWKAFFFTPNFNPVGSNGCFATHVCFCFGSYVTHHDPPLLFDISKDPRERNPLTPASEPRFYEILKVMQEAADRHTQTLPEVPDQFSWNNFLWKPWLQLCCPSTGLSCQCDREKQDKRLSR
Experimental: Sulphatase-positive human placenta from normal term pregnancies are thoroughly minced with scissors and washed once with cold phosphate buffer (pH 7.4, 50 mM) then resuspended in cold phosphate buffer (5 ml/g tissue). Homogenisation is accomplished with an Ultra-Turrax homogeniser, using three 10 second bursts separated by 2 minute cooling periods in ice. Nuclei and cell debris are removed by centrifuging (4° C.) at 2000 g for 30 minutes and portions (2 ml) of the supernatant are stored at […] The protein concentration of the supernatants is determined by the method of Bradford (Anal. Biochem., 72, 248-254 (1976)).
Incubations (1 ml) are carried out using a protein concentration of […], substrate concentration of […] [6,7-3H]oestrone-3-sulphate (specific activity 60 Ci/mmol from New England Nuclear, Boston, Mass., U.S.A.) and an incubation time of 20 minutes at 37° C. If necessary eight concentrations of compounds are employed: 0 (i.e. control); 0.05 mM; 0.1 mM; 0.2 mM; 0.4 mM; 0.6 mM; 0.8 mM; 1.0 mM. After incubation each sample is cooled and the medium (1 ml) was pipetted into separate tubes containing [14C]oestrone (7×10^3 dpm) (specific activity 97 Ci/mmol from Amersham International Radiochemical Centre, Amersham, U.K.). The mixture is shaken thoroughly for 30 seconds with toluene (5 ml). Experiments have shown that >90% [14C]oestrone and <0.1% [3H]oestrone-3-sulphate is removed from the aqueous phase by this treatment. A portion (2 ml) of the organic phase was removed, evaporated and the 3H and 14C content of the residue determined by scintillation spectrometry. The mass of oestrone-3-sulphate hydrolysed is calculated from the 3H counts obtained (corrected for the volumes of the medium and organic phase used, and for recovery of [14C]oestrone added) and the specific activity of the substrate.
as §1

[3] = molecular target: CuZnSOD (UniProt P00442); assay: Superoxide dismutase (SOD) spectrophotometric XTT assay, Protocol 1; assay type: biochemical
Experimental: In this reaction, 3′-{1-[(phenylamino)-carbonyl]-3,4-tetrazolium}-bis(4-methoxy-6-nitro)benzenesulfonic acid hydrate (XTT) is converted to a colourimetric product by the action of superoxide ions (produced by xanthine oxidase (XO) and xanthine). Production of superoxide ions is inhibited by SOD resulting in decreased product. The ability of test compounds to inhibit SOD is measured by their ability to restore production of the coloured product. Reactions were performed in a total volume of 0.1 ml of buffer A (42 mM Na2CO3 (pH 9.4), 0.1 mM xanthine (Sigma), 0.1 mM EDTA, 0.026 mM XTT (Sigma)).
The reaction was incubated at 24° C. for 30 minutes and products determined by measuring absorobance at 470 nm. All determinations were made in duplicate/triplicate.
SOD activity was measured in accordance with Protocol 1.
Initial analyses were performed using test compounds at 100 μM.

[4] = tested on: uterus; details: oral, rats, higher than that of estradiol; cited from earlier work
[5] = molecular target: T2, rat liver E1-STS (Rattus norvegicus, UniProt P15589); details: administered either orally or subcutaneously; cited from earlier work
T2 construct: from tissue; host or cells: rat liver (after oral or subcutaneous dosing)
T2 sequence (P15589 20-577): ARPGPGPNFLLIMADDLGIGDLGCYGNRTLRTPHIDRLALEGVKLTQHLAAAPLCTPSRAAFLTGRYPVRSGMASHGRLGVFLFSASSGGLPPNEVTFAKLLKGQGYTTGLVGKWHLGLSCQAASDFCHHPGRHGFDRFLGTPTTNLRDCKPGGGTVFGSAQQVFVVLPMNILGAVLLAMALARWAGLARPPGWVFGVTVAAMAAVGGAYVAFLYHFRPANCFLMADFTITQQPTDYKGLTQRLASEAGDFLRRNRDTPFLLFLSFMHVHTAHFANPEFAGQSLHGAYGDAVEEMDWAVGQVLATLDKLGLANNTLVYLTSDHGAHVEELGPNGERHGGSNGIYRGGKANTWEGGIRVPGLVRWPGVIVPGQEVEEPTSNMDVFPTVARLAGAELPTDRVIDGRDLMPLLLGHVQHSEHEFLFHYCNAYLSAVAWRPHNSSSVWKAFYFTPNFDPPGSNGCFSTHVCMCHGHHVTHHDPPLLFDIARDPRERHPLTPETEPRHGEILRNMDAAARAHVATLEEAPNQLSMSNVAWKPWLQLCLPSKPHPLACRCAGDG

[6] = molecular target: T3, DHA-STS (Rattus norvegicus, UniProt P15589); details: administered either orally or subcutaneously; cited from earlier work
T3 construct: from tissue; host or cells: rat liver (after oral or subcutaneous dosing)
T3 sequence (P15589 20-577): T2 sequence (P15589 20-577)

[7] = xanthine oxidase/XTT, 24° C., 30 minutes, read-out: IC 50/μM (+/− SEM) SOD Inhibition
[8] = read-out: IC 50/μM (+/− SEM) SOD Inhibition, xanthine oxidase/XTT, 24° C., 30 minutes

With `CSc1cc2c(cc1OS(N)(=O)=O)CCC1C2CC[C@@]2(C)C1CC[C@@]2(O)Cc1ccccc1` (stereo in doubt) [Compound 30, Sulfamic acid 17-benzyl-17-hydroxy-13-methyl-2-methylsulfanyl-7,8,9,11,12,13,14, 15,16,17-decahydro-6H-cyclopenta[a]phenanthren-3-yl ester] the “Plate Assay, % inhibition 0.1 μM” value [1] was less than 1%, the “Plate Assay, % inhibition 1 μM” value [1] was less than 1% and the “Plate Assay, % inhibition 10 μM” value [1] was 31%. It also gave an IC50 ([2]; placental microsomes) of 0.044 µM, an inhibition at 0.01 µM [2] of 15.5% and an inhibition at 0.1 µM ([2]; read-out: Placental Microsomes, % inhibition 100 nM) of 69.7%. The inhibition at 1 µM [2] was 93% and the inhibition at 10 µM ([2]; read-out: Placental Microsomes, % inhibition 10 μM) was 97.4%.

Work on `CSc1cc2c(cc1O)CCC1C2CCC2(C)C(O)CCC12` (stereo not drawn) [Compound 1, 2-methylsulfanylestradiol] yielded an IC50 [3, 7] of 10 µM.

For `CCOc1cc2c(cc1O)CCC1C2CCC2(C)C(O)CCC12` (stereo not drawn) [Compound 2, 2-ethoxyestradiol], the IC50 [3, 7] was 11 µM.

`COc1cc2c(cc1O)CCC1C2CCC2(C)C(O)CCC12` (stereo not drawn) [Compound 3, 2-methoxy-17β-estradiol, reference compound] showed an IC50 [3, 7] of 12 µM.

Work on `COc1cc2c(cc1O)CCC1C2CCC2(C)C(O)CCC12` (stereo not drawn) [Compound 4, 2-methoxy-17α-estradiol] yielded an IC50 [3, 7] of 13 µM.

`COc1cc2c(cc1O)CCC1C2CCC2(C)C(=O)CCC12` (stereo not drawn) [Compound 5, 2-methoxyestrone, reference compound] gave an IC50 [3, 7] of 14 µM.

In the case of `CCSc1cc2c(cc1O)CCC1C2CCC2(C)C(O)CCC12` (stereo not drawn) [Compound 6, 2-ethylsulfanylestradiol], the IC50 [3, 7] is reported as 14 µM.

Molecule `CCOc1cc2c(cc1O)CCC1C2CCC2(C)C(=O)CCC12` (stereo not drawn) [Compound 7, 2-ethoxyestrone] has an IC50 [3, 7] of 19 µM.

In the case of `CSc1cc2c(cc1O)CCC1C2CC[C@]2(C)C(=O)CCC12` (stereo partly drawn) [Compound 8, 2-methylsulfanylestrone], the “Plate Assay, % inhibition 0.1 μM” value [1] is reported as less than 1%, the “Plate Assay, % inhibition 1 μM” value [1] is reported as 1% and the “Plate Assay, % inhibition 10 μM” value [1] is reported as 11%. For the same molecule, the IC50 [3, 7] was 21 µM.

Molecule `COc1cc2c(cc1N)CCC1C2CCC2(C)C(=O)CCC12` (stereo not drawn) [Compound 9, 2-methoxy-3-aminoestrone] has an IC50 [3, 7] of 79 µM.

With `CCSc1cc2c(cc1O)CCC1C2CC[C@]2(C)C(=O)CCC12` (stereo partly drawn) [Compound 10, 2-ethylsulfanylestrone] the “Plate Assay, % inhibition 0.1 μM” value [1] was less than 1%, the “Plate Assay, % inhibition 1 μM” value [1] was less than 4% and the “Plate Assay, % inhibition 10 μM” value [1] was 14%. The IC50 [3, 7] was 79 µM.

`CC12CCC3c4cc(F)c(O)cc4CCC3C1CCC2=O` (stereo not drawn) [Compound 11, 2-fluoroestrone] showed an IC50 [3, 7] of 81 µM.

`CC12CCC3c4cc(Cl)c(O)cc4CCC3C1CCC2=O` (stereo not drawn) [Compound 12, 2-chloroestrone] showed an IC50 [3, 7] of 83 µM.

Work on `COc1cc2c(cc1O)CCC1C2CCC2(C)C1CCC2(O)Cc1ccccc1` (stereo not drawn) [Compound 13, 2-methoxy-17α-benzyl-estradiol] yielded an IC50 [3, 8] of 88 µM.

`COc1cc2c3c(c(=O)oc2cc1O)CCCCC3` [Compound 14, 3-Hydroxy-2-methoxy-6-oxo-8,9,10,11-tetrahydro-7H-cyclohepta-[c][1]benzopyran] gave an IC50 [3, 7] of 91 µM.

Work on `C=CCc1cc2c(cc1O)CCC1C2CCC2(C)C(=O)CCC12` (stereo not drawn) [Compound 15, 2-allylestrone] yielded an IC50 [3, 7] greater than 100 µM.

With `CC12CCC3c4cc(I)c(O)cc4CCC3C1CCC2=O` (stereo not drawn) [Compound 16, 2-iodoestrone] the IC50 [3, 7] was greater than 100 µM.

`CC12CCC3c4cc(C(F)F)c(O)cc4CCC3C1CCC2=O` (stereo not drawn) [Compound 17, 2-difluoromethylestrone] gave an IC50 [3, 7] greater than 100 µM.

With `C[S+]([O-])c1cc2c(cc1O)CCC1C2CCC2(C)C(=O)CCC12` (stereo not drawn) [Compound 18, 2-methylsulfoxyestrone] the IC50 [3, 7] was greater than 100 µM.

In the case of `CC12CCC3c4cc(S(C)(=O)=O)c(O)cc4CCC3C1CCC2=O` (stereo not drawn) [Compound 19, 2-methylsulfonylestrone], the IC50 [3, 7] is reported as greater than 100 µM.

For `CC12CCC3c4cc([N+](=O)[O-])c(O)cc4CCC3C1CCC2=O` (stereo not drawn) [Compound 20, 2-nitroestrone], the IC50 [3, 7] was greater than 100 µM.

`CCc1cc2c(cc1O)CCC1C2CCC2(C)C(=O)CCC12` (stereo not drawn) [Compound 21, 2-ethylestrone] gave an IC50 [3, 7] greater than 100 µM.

`COc1cc2c(c([N+](=O)[O-])c1O)CCC1C2CCC2(C)C(=O)CCC12` (stereo not drawn) [Compound 22, 2-methoxy-4-nitroestrone] showed an IC50 [3, 7] greater than 100 µM.

For `COc1cc2c(cc1O)CCC1C2CCC2(C)C1CCC2(O)Cc1ccc(C(C)(C)C)cc1` (stereo not drawn) [Compound 23, 2-methoxy-17α-(4-tert-butylbenzyl)oestradiol], the IC50 [3, 8] was greater than 100 µM.

In the case of `CC12CCC3c4ccc(OS(N)(=O)=O)cc4CCC3C1CCC2=O` (stereo not drawn) [Compound 24, estrone-3-O-sulphamate, reference compound], the “oral uterotrophic activity in rats relative to estradiol” value [4] is listed as 100 times, the IC50 [3, 7] is listed as greater than 100 µM and the “inhibition of rat liver E1-STS activity” value [5] is listed as 99%. The “inhibition of rat liver DHA-STS activity” value [6] was 99%.

For `CCc1cc2c(cc1OS(N)(=O)=O)CCC1C2CCC2(C)C(=O)CCC12` (stereo not drawn) [Compound 26, 2-ethylestrone-3-O-sulphamate], the IC50 [3, 7] was greater than 100 µM.

Molecule `CC12CCC3C(=CCc4cc(OS(N)(=O)=O)ccc43)C1CCC2=O` (stereo not drawn) [Compound 27, equilin-3-O-sulphamate] has an IC50 [3, 7] greater than 100 µM.

With `CSc1cc2c(cc1O)CCC1C2CC[C@]2(C)CCCC12` (stereo partly drawn) [Compound 28, 2-methylsulfanyl-17-deoxyoestrone] the IC50 [3, 7] was greater than 100 µM.

In the case of `COc1cc2c(cc1O)CCC1C2CC[C@]2(C)CCCC12` (stereo partly drawn) [Compound 29, 2-methoxy-17-deoxyoestrone], the IC50 [3, 7] is reported as greater than 100 µM.

With `CSc1cc2c(cc1O)CCC1C2CCC2(C)C1CCC2(O)Cc1ccc(C(C)(C)C)cc1` (stereo not drawn) [Compound 31, 17-(4-tert-Butyl-benzyl)-13-methyl-2-methylsulfanyl-7,8,9,11,12,13,14,15,16,17-decahydro-6H-cyclopenta[a]phenanthrene-3,17-diol] the “Plate Assay, % inhibition 0.1 μM” value [1] was less than 1%, the “Plate Assay, % inhibition 1 μM” value [1] was less than 1% and the “Plate Assay, % inhibition 10 μM” value [1] was 50%.

With `CSc1cc2c(cc1OS(N)(=O)=O)CCC1C2CCC2(C)C1CCC2(O)Cc1ccc(C(C)(C)C)cc1` (stereo not drawn) [Compound 32, Sulfamic acid 17-(4-tert-butyl-benzyl)-17-hydroxy-13-methyl-2-methylsulfanyl-7,8,9,11,12,13,14,15,16,17-decahydro-6H-cyclopenta[a]phenanthren-3-yl ester] the “Plate Assay, % inhibition 0.1 μM” value [1] was less than 1%, the “Plate Assay, % inhibition 1 μM” value [1] was less than 1% and the “Plate Assay, % inhibition 10 μM” value [1] was 48%. It also gave an inhibition at 1 µM [2] of 81.8%.

With `CCSc1cc2c(cc1OS(N)(=O)=O)CCC1C2CC[C@]2(C)C(=O)CCC12` (stereo partly drawn) [Compound 38] the “Plate Assay, % inhibition 0.1 μM” value [1] was less than 1%, the “Plate Assay, % inhibition 1 μM” value [1] was 1% and the “Plate Assay, % inhibition 10 μM” value [1] was 16%. For the same molecule, the inhibition at 0.01 µM [2] was less than 5% and the inhibition at 1 µM [2] was 66%.

Reference: patent US7342004B2, “Thioether sulphamate steroids as steroid inhibitors and anti-cancer compounds” (Sterix Ltd., priority 2000, dated 2008)
